Our source for the Kd values is PMC8458504, “Targeting the actin nucleation promoting factor WASp provides a therapeutic approach for hematopoietic malignancies” (Nature Communications, 2021).

For this test, the target named is T1, YFP-WASp wt (Wiskott–Aldrich Syndrome protein) (Homo sapiens, UniProt P42768).
T1 construct: gene WAS; full-length wild type, YFP-tagged, transiently expressed in HEK 293T (endogenous WIP present); diluted whole-cell lysate, not purified
T1 sequence (P42768 2-502): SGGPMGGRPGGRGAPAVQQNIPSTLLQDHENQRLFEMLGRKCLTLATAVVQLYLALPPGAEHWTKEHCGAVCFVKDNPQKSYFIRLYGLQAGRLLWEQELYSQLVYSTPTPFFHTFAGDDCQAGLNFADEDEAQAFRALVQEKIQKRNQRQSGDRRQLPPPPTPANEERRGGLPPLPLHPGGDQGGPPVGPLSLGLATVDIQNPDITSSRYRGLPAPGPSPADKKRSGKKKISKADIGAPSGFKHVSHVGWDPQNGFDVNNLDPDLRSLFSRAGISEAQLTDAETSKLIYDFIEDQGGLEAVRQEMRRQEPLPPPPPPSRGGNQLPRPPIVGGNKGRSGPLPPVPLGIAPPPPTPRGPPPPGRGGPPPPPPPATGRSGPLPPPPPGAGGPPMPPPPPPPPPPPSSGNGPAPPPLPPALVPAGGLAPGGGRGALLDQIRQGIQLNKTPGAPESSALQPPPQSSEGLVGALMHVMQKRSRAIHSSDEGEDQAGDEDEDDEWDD
Briefly: microscale thermophoresis in diluted HEK […] lysate. Format: binding.

As to `COc1ccc(CN2C(=O)N(CC(C)C)C3(CCN(C4Cc5ccccc5C4)CC3)C2=O)cc1` [SMC #13, 8-(2,3-dihydro-1H-inden-2-yl)-1-isobutyl-3-(4-methoxybenzyl)-1,3,8-triazaspiro[4.5]decane-2,4-dione], binding was put at a Kd of 30.8 ± 13.6 nM.
